Experimental data published in patent US20140243322A1, “BIVALENT BROMODOMAIN LIGANDS, AND METHODS OF USING SAME” (Coferon, Inc., priority 2011, published 2014).

Assays:
[1] = tested on: MV4-11 cells; experiment: Inhibition of MV4-11 cell proliferation (Cell-Titer Glo); format: cell-based; settings: Homo sapiens, 72 hours of growth, read-out: GI50 range
Experimental: Inhibition of MV4-11 Cell Proliferation.
MV4-11 cells (5000 cells in 50 μl volumes) in growth medium containing 10% FBS and 1% Pen/Strep were plated and grown overnight in 96 well plates and treated the next day with 3-fold dilutions of test compounds or with DMSO vehicle. After 72 hours of growth, 30 ul of Cell-Titer Glo reagent (Promega) was added to the wells and the plates incubated for 30 minutes. Luminescence was measured on a Spectramax M5 plate reader and GI50 values were calculated for each test compound.

[2] = tested on: Myc mRNA; experiment: Inhibition of Myc expression (Myc mRNA) in MV4-11 cells; format: cell-based; settings: Homo sapiens, 4 hours of treatment, read-out: EC50 range, Myc mRNA normalized to GAPDH mRNA
Text: Inhibition of Myc Expression.

Structure (SMILES) | GI50 [1] [nM] | EC50 [2] [nM]
CCNC(=O)C[C@@H]1N=C(c2ccc(Cl)cc2)c2cc(OCCNC(=O)C[C@@H]3N=C(c4ccc(Cl)cc4)c4cc(OC)ccc4-n4c(C)nnc43)ccc2-n2c(C)nnc21 [BRD-B-01, N-(2-(((S)-6-(4-chlorophenyl)-4-(2-(ethylamino)-2-oxoethyl)-1-methyl-4H-benzo[f][1,2,4]triazolo[4,3-a][1,4]diazepin-8-yl)oxy)ethyl)-2-((S)-6-(4-chlorophenyl)-8-methoxy-1-methyl-4H-benzo[f][1,2,4]triazolo[4,3-a][1,4]diazepin-4-yl)acetamide] | 100 to 30000 | 
CCNC(=O)C[C@@H]1N=C(c2ccc(Cl)cc2)c2cc(OCCOCCOCCNC(=O)C[C@@H]3N=C(c4ccc(Cl)cc4)c4cc(OC)ccc4-n4c(C)nnc43)ccc2-n2c(C)nnc21 [BRD-B-04, N-(2-(2-(2-(((S)-6-(4-chlorophenyl)-4-(2-(ethylamino)-2-oxoethyl)-1-methyl-4H-benzo[f][1,2,4]triazolo[4,3-a][1,4]diazepin-8-yl)oxy)ethoxy)ethoxy)ethyl)-2-((S)-6-(4-chlorophenyl)-8-methoxy-1-methyl-4H-benzo[f][1,2,4]triazolo[4,3-a][1,4]diazepin-4-yl)acetamide] | 0.1 to 30 | 0.1 to 30
CCNC(=O)C[C@@H]1N=C(c2ccc(Cl)cc2)c2cc(OCCOCCOCCOCCNC(=O)C[C@@H]3N=C(c4ccc(Cl)cc4)c4cc(OC)ccc4-n4c(C)nnc43)ccc2-n2c(C)nnc21 [BRD-B-05, N-(2-(2-(2-(2-(((S)-6-(4-chlorophenyl)-4-(2-(ethylamino)-2-oxoethyl)-1-methyl-4H-benzo[f][1,2,4]triazolo[4,3-a][1,4]diazepin-8-yl)oxy)ethoxy)ethoxy)ethoxy)ethyl)-2-((S)-6-(4-chlorophenyl)-8-methoxy-1-methyl-4H-benzo[f][1,2,4]triazolo[4,3-a][1,4]diazepin-4-yl)acetamide] | 0.1 to 30 | 30 to 100
COc1ccc2c(c1)C(c1ccc(Cl)cc1)=N[C@@H](CC(=O)NCCNC(=O)NCCNC(=O)C[C@@H]1N=C(c3ccc(Cl)cc3)c3cc(OC)ccc3-n3c(C)nnc31)c1nnc(C)n1-2 [BRD-B-06, (S)—N,N′-((carbonylbis(azanediyl))bis(ethane-2,1-diyl))bis(2-((S)-6-(4-chlorophenyl)-8-methoxy-1-methyl-4H-benzo[f][1,2,4]triazolo[4,3-a][1,4]diazepin-4-yl)acetamide)] | 100 to 30000 | 100 to 30000
COc1ccc2c(c1)C(c1ccc(Cl)cc1)=N[C@@H](CC(=O)NCCNC(=O)CNC(=O)C[C@@H]1N=C(c3ccc(Cl)cc3)c3cc(OC)ccc3-n3c(C)nnc31)c1nnc(C)n1-2 [BRD-B-07, 2-((S)-6-(4-chlorophenyl)-8-methoxy-1-methyl-4H-benzo[f][1,2,4]triazolo[4,3-a][1,4]diazepin-4-yl)-N-(2-(2-(2-((S)-6-(4-chlorophenyl)-8-methoxy-1-methyl-4H-benzo[f][1,2,4]triazolo[4,3-a][1,4]diazepin-4-yl)acetamido)acetamido)ethyl)acetamide] | 100 to 30000 | 100 to 30000
COc1ccc2c(c1)C(c1ccc(Cl)cc1)=N[C@@H](CC(=O)NCCNC(=O)CNC(=O)CNC(=O)C[C@@H]1N=C(c3ccc(Cl)cc3)c3cc(OC)ccc3-n3c(C)nnc31)c1nnc(C)n1-2 [BRD-B-08, 2-((S)-6-(4-chlorophenyl)-8-methoxy-1-methyl-4H-benzo[f][1,2,4]triazolo[4,3-a][1,4]diazepin-4-yl)-N-(2-(2-(2-(2-((S)-6-(4-chlorophenyl)-8-methoxy-1-methyl-4H-benzo[f][1,2,4]triazolo[4,3-a][1,4]diazepin-4-yl)acetamido)acetamido)acetamido)ethyl)acetamide] | 100 to 30000 | 100 to 30000
COc1ccc2c(c1)C(c1ccc(Cl)cc1)=N[C@@H](CC(=O)NCCNC(=O)CNC(=O)NCCNC(=O)C[C@@H]1N=C(c3ccc(Cl)cc3)c3cc(OC)ccc3-n3c(C)nnc31)c1nnc(C)n1-2 [BRD-B-09] | 100 to 30000 | 100 to 30000
COc1ccc2c(c1)C(c1ccc(Cl)cc1)=N[C@@H](CC(=O)NCc1cccc(C3CCN(C(=O)C[C@@H]4N=C(c5ccc(Cl)cc5)c5cc(OC)ccc5-n5c(C)nnc54)CC3)c1)c1nnc(C)n1-2 [BRD-B-10, 2-((S)-6-(4-chlorophenyl)-8-methoxy-1-methyl-4H-benzo[f][1,2,4]triazolo[4,3-a][1,4]diazepin-4-yl)-N-(3-(1-(2-((S)-6-(4-chlorophenyl)-8-methoxy-1-methyl-4H-benzo[f][1,2,4]triazolo[4,3-a][1,4]diazepin-4-yl)acetyl)piperidin-4-yl)benzyl)acetamide] | 100 to 30000 | 
COc1ccc2c(c1)C(c1ccc(Cl)cc1)=N[C@@H](CC(=O)NCC(=O)NCCNC(=O)CNC(=O)C[C@@H]1N=C(c3ccc(Cl)cc3)c3cc(OC)ccc3-n3c(C)nnc31)c1nnc(C)n1-2 [BRD-B-11, (S)—N,N′-(ethane-1,2-diyl)bis(2-(2-((S)-6-(4-chlorophenyl)-8-methoxy-1-methyl-4H-benzo[f][1,2,4]triazolo[4,3-a][1,4]diazepin-4-yl)acetamido)acetamide)] | 100 to 30000 | 100 to 30000
CCNC(=O)C[C@@H]1N=C(c2ccc(Cl)cc2)c2cc(OCCOCCOCCOCCOCCNC(=O)C[C@@H]3N=C(c4ccc(Cl)cc4)c4cc(OC)ccc4-n4c(C)nnc43)ccc2-n2c(C)nnc21 [BRD-B-12, N-(14-(((4S)-6-(4-chlorophenyl)-4-(2-(ethylamino)-2-oxoethyl)-1-methyl-4H-benzo[f][1,2,4]triazolo[4,3-a][1,4]diazepin-8-yl)oxy)-3,6,9,12-tetraoxatetradecyl)-2-((4S)-6-(4-chlorophenyl)-8-methoxy-1-methyl-4H-benzo[f][1,2,4]triazolo[4,3-a][1,4]diazepin-4-yl)acetamide] | 0.1 to 30 | 30 to 100
CCNC(=O)C[C@@H]1N=C(c2ccc(Cl)cc2)c2cc(OCCOCCOCCOCCOCCOCCNC(=O)C[C@@H]3N=C(c4ccc(Cl)cc4)c4cc(OC)ccc4-n4c(C)nnc43)ccc2-n2c(C)nnc21 [BRD-B-13, N-(17-(((4S)-6-(4-chlorophenyl)-4-(2-(ethylamino)-2-oxoethyl)-1-methyl-4H-benzo[f][1,2,4]triazolo[4,3-a][1,4]diazepin-8-yl)oxy)-3,6,9,12,15-pentaoxaheptadecyl)-2-((4S)-6-(4-chlorophenyl)-8-methoxy-1-methyl-4H-benzo[f][1,2,4]triazolo[4,3-a][1,4]diazepin-4-yl)acetamide] | 0.1 to 30 | 100 to 30000
COc1ccc2c(c1)C(c1ccc(Cl)cc1)=N[C@@H](CC(=O)NCCOCCOCCOCCOCCNC(=O)C[C@@H]1N=C(c3ccc(Cl)cc3)c3cc(OC)ccc3-n3c(C)nnc31)c1nnc(C)n1-2 [BRD-B-16, (S)—N,N′-(3,6,9,12-tetraoxatetradecane-1,14-diyl)bis(2-((S)-6-(4-chlorophenyl)-8-methoxy-1-methyl-4H-benzo[f][1,2,4]triazolo[4,3-a][1,4]diazepin-4-yl)acetamide)] | 30 to 100 | 30 to 100
COc1ccc2c(c1)C(c1ccc(Cl)cc1)=N[C@@H](CC(=O)NCCOCCOCCOCCOCCOCCNC(=O)C[C@@H]1N=C(c3ccc(Cl)cc3)c3cc(OC)ccc3-n3c(C)nnc31)c1nnc(C)n1-2 [BRD-B-17, (S)—N,N′-(3,6,9,12,15-pentaoxaheptadecane-1,17-diyl)bis(2-((S)-6-(4-chlorophenyl)-8-methoxy-1-methyl-4H-benzo[f][1,2,4]triazolo[4,3-a][1,4]diazepin-4-yl)acetamide)] | 30 to 100 | 100 to 30000
COc1ccc2c(c1)C(c1ccc(Cl)cc1)=N[C@@H](CC(=O)NCCOCCOCCOCCOCCOCCOCCNC(=O)C[C@@H]1N=C(c3ccc(Cl)cc3)c3cc(OC)ccc3-n3c(C)nnc31)c1nnc(C)n1-2 [BRD-B-18, (S)—N,N′-(3,6,9,12,15,18-hexaoxaicosane-1,20-diyl)bis(2-((S)-6-(4-chlorophenyl)-8-methoxy-1-methyl-4H-benzo[f][1,2,4]triazolo[4,3-a][1,4]diazepin-4-yl)acetamide)] | 0.1 to 30 | 30 to 100
COc1ccc2c(c1)C(c1ccc(Cl)cc1)=N[C@@H](CC(=O)NCCOCCOCCOCCOCCOCCOCCOCCNC(=O)C[C@@H]1N=C(c3ccc(Cl)cc3)c3cc(OC)ccc3-n3c(C)nnc31)c1nnc(C)n1-2 [BRD-B-19, (S)—N,N′-(3,6,9,12,15,18,21-heptaoxatricosane-1,23-diyl)bis(2-((S)-6-(4-chlorophenyl)-8-methoxy-1-methyl-4H-benzo[f][1,2,4]triazolo[4,3-a][1,4]diazepin-4-yl)acetamide)] | 0.1 to 30 | 100 to 30000
CCNC(=O)C[C@@H]1N=C(c2ccc(Cl)cc2)c2cc(OCCOCCOCCOCCOCCOCCOCCOCCOCCOCCNC(=O)C[C@@H]3N=C(c4ccc(Cl)cc4)c4cc(OC)ccc4-n4c(C)nnc43)ccc2-n2c(C)nnc21 [BRD-B-21, N-(29-(((4S)-6-(4-chlorophenyl)-4-(2-(ethylamino)-2-oxoethyl)-1-methyl-4H-benzo[f][1,2,4]triazolo[4,3-a][1,4]diazepin-8-yl)oxy)-3,6,9,12,15,18,21,24,27-nonaoxanonacosyl)-2-((4S)-6-(4-chlorophenyl)-8-methoxy-1-methyl-4H-benzo[f][1,2,4]triazolo[4,3-a][1,4]diazepin-4-yl)acetamide] |  | 100 to 30000
Cc1ccc(-c2c(C)noc2C)cc1S(=O)(=O)NCCOCCOCCNS(=O)(=O)c1cc(-c2c(C)noc2C)ccc1C [BRD-B-76, N,N′-((ethane-1,2-diylbis(oxy))bis(ethane-2,1-diyl))bis(5-(3,5-dimethylisoxazol-4-yl)-2-methylbenzenesulfonamide)] |  | 100 to 30000
